Drawing on patent US20050222146A1, “N-substituted-n-sulfonylaminocyclopropane compounds and pharmaceutical use thereof” (priority 2003, published 2005), this text covers IC50 for 8 molecules.

What all share (assay type): biochemical
One assay has as its target T1, aggrecanase-1 (Homo sapiens, UniProt O75173).
T1 sequence (O75173 213-837): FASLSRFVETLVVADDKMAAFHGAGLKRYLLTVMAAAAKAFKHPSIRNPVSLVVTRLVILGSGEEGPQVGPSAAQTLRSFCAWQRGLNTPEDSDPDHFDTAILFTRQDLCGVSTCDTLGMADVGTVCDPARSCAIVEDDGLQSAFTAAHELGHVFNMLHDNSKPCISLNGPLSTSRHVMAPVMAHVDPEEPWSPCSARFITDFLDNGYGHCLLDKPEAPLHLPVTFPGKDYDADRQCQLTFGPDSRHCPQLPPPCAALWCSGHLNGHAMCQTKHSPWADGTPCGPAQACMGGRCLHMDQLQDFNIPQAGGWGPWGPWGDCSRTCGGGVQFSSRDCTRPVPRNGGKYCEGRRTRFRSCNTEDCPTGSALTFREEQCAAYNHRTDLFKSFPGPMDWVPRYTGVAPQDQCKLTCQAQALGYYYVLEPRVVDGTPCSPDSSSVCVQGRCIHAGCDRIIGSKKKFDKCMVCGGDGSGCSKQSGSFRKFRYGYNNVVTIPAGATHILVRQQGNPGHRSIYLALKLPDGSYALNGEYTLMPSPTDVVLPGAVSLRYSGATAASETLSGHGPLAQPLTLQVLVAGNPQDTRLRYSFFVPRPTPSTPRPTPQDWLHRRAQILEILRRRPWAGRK
Kind of assay: Aggrecanase-1 inhibitory action, Particle Assay (GAG release from aggrecan-containing polyacrylamide particles). As to conditions: 37° C. for 15 hr, read-out: Experimental Example 1 IC50 AG1. The procedure, abridged:
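IC50 (μM) derived from % inhibition, referenced to enzyme-free and inhibitor-free wells, of GAG release read as 1,9-dimethylmethylene blue absorbance at 595 nm (chondroitin sulfate standard). Substrate: aggrecan-bearing polyacrylamide particles, exposed to enzyme plus compound in Tris-HCl for 15 hr at 37 °C.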

For a further assay, the target named is T2, Recombinant Human MMP-13 (Homo sapiens, UniProt P45452).
T2 construct: purchased R&D systems 511-MM
Put plainly: MMP-13 inhibition, MMP-13 specific fluorescent substrate with quencher. The conditions noted are these: synthetic substrate 7-MCA-Pro-CHA-Gly-NVal-His-Ala-DPA, 25° C. for 1 h; read-out: Experimental Example 3 IC50 MMP13. The protocol:
Inhibitory activity of tested compounds on MMP-13 was measured using MMP-13 specific fluorescent substrate with quencher.
The enzyme and substrate were diluted with Tris-HCl buffer, and test compounds were diluted with dimethyl sulfoxide (DMSO).
Test compounds and the enzyme (Recombinant Human MMP-13: R&D systems, 511-MM) were added into 96-well plate. The reaction was initiated by adding synthetic substrate (7-MCA-Pro-CHA-Gly-NVal-His-Ala-DPA: enzyme systems products, Met-06) into the plate. After incubation at 25° C. for 1 h, the reaction was terminated by addition of reaction terminating solution containing acetic acid. Fluorescence intensity of each well was measured (Ex: 325 nm, Em: 405 nm) and the MMP-13 inhibitory activity of the compound in each well (%) was calculated based on the values of enzyme-free well and inhibitor-free well. The inhibitory activity of the compound was represented as IC50 (μM).

A further assay concerns the target T3, MMP-1 (Homo sapiens, UniProt P03956).
T3 sequence (P03956 100-469): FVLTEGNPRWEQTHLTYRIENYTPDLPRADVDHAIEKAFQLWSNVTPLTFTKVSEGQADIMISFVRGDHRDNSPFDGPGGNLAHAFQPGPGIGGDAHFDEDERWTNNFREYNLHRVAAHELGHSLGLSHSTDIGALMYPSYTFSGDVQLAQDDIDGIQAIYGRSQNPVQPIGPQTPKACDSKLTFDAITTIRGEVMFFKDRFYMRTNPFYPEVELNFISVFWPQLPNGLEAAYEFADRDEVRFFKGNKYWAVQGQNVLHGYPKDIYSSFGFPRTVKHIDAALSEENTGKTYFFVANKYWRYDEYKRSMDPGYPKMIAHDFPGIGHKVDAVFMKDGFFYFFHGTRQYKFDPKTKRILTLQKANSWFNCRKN
Put plainly: MMP-1 inhibitory action, Type I collagen Activity Measurement kit (FITC-labeled collagen type I). The conditions noted are these: 37° C. for 3 hr, read-out: Experimental Example 2 IC50 MMP1.

Some results are limits rather than exact numbers.

The term IC50 denotes the midpoint of a concentration-inhibition curve.

For `CN1CCN(C(=O)CN([C@@]2(C(=O)O)C[C@@H]2c2ccccc2)S(=O)(=O)c2ccc(-c3ccc(Cl)cc3)s2)CC1` [Example 2-11, (1S,2R)-1-{[5-(4-Chloro-phenyl)-thiophene-2-sulfonyl]-[2-(4-methyl-piperazin-1-yl)-2-oxo-ethyl]-amino}-2-phenyl-cyclopropanecarboxylic acid], the IC50 on aggrecanase-1 is at least 1 µM; at Recombinant Human MMP-13, at least 10 µM; on MMP-1 it was at least 10 µM.
`O=C(O)CN([C@]1(C(=O)O)C[C@H]1c1ccccc1)S(=O)(=O)c1ccc(-c2cc(C(F)(F)F)on2)s1` [Example 2-09, (1R,2S)-1-{Carboxymethyl-[5-(5-trifluoromethyl-isoxazol-3-yl)-thiophene-2-sulfonyl]-amino}-2-phenyl-cyclopropanecarboxylic acid]: the IC50 was under 0.1 µM on aggrecanase-1, at least 1 µM at Recombinant Human MMP-13 and at least 10 µM on MMP-1.
For `CN([C@@]1(C(=O)O)C[C@@H]1c1ccccc1)S(=O)(=O)c1ccc(-c2ccc(Cl)cc2)s1` [Example 2-03, (1S,2R)-1-{[5-(4-Chloro-phenyl)-thiophene-2-sulfonyl]-methyl-amino}-2-phenyl-cyclopropanecarboxylic acid], in that order: at least 1 µM, at least 10 µM and at least 10 µM.
As to `O=C(OCCN([C@]1(C(=O)O)C[C@H]1c1ccccc1)S(=O)(=O)c1ccc(-c2ccc(Cl)cc2)s1)N1CCOCC1` [Example 2-19, Morpholine-4-carboxylic acid 2-{((1R,2S)-1-carboxy-2-phenyl-cyclopropyl)-[5-(4-chloro-phenyl)-thiophene-2-sulfonyl]-amino}-ethyl ester], the IC50 was at least 1 µM on aggrecanase-1, under 1 µM at Recombinant Human MMP-13 and at least 10 µM on MMP-1.
For `O=C(CN([C@]1(C(=O)O)C[C@H]1c1ccccc1)S(=O)(=O)c1ccc(-c2ccc(Cl)cc2)s1)N1CCOCC1` [Example 2-16, (1R,2S)-1-[[5-(4-Chloro-phenyl)-thiophene-2-sulfonyl]-(2-morpholin-4-yl-2-oxo-ethyl)-amino]-2-phenyl-cyclopropanecarboxylic acid], in that order: at least 1 µM, at least 1 µM and at least 10 µM.
For `CN([C@]1(C(=O)O)C[C@@]1(CN1CCOCC1)c1ccccc1)S(=O)(=O)c1ccc(-c2cc(C(F)(F)F)on2)s1` (relative stereo) [Example 2-24, (1R*,2S*)-1-{Methyl-[5-(5-trifluoromethyl-isoxazol-3-yl)-thiophene-2-sulfonyl]-amino}-2-morpholin-4-ylmethyl-2-phenyl-cyclopropanecarboxylic acid], in that order: at least 1 µM, at least 10 µM and at least 10 µM.
For `O=C(O)CN([C@@]1(C(=O)O)C[C@@H]1c1ccccc1)S(=O)(=O)c1ccc(-c2ccc(Cl)cc2)s1` [Example 2-10, (1S,2R)-1-{Carboxymethyl-[5-(4-chloro-phenyl)-thiophene-2-sulfonyl]-amino}-2-phenyl-cyclopropanecarboxylic acid], in that order: under 1 µM, at least 10 µM and at least 10 µM.
Regarding `Nc1nnnn1CCN([C@]1(C(=O)O)C[C@H]1c1ccccc1)S(=O)(=O)N1CCN(c2ccc(C(F)(F)F)cc2)CC1` (relative stereo) [Example 2-07, (1R*,2S*)-1-{[2-(5-Amino-tetrazol-1-yl)-ethyl]-[4-(4-trifluoromethyl-phenyl)-piperazine-1-sulfonyl]-amino}-2-phenyl-cyclopropanecarboxylic acid], the values for the IC50 at aggrecanase-1, on Recombinant Human MMP-13 and on MMP-1 were at least 1 µM, at least 10 µM and at least 10 µM, respectively.
